Measured values reported in patent US10611762B2, “Crystalline forms of a FGFR inhibitor and processes for preparing the same” (Incyte Corporation, priority 2017, dated 2020).
≈ marks a conversion by molar mass, not a printed value.

Assays:
Format in all cases: physicochemical
[1] = Solubility measurement in various solvents at 50 ± 1° C. (Procedure 2)
Procedure: (§1) The solubility of the Compound 1 Form I was measured according to Procedure 1 for solubility in 23±1° C. (Table 13) and Procedure 2 for 50±1° C.

[2] = Competitive slurry experiments (stability relationship of Compound 1 forms); settings: in acetone/water (2:1) and acetone/water (1:1), 23-25° C.
Procedure: To evaluate the transformation of Compound 1 solid forms, competitive slurry experiments in production crystallization solvents at 23-25° C. were performed with a mixture of […] polymorphs (Form I through Form XI) according to the procedures in Table 25 (acetone/water 2:1) and Table 26 (acetone/water 1:1).

[3] = Solubility measurement in various solvents at 23 ± 1° C. (Procedure 1)
Procedure: as §1

## C=CC(=O)NCc1cc2c(cn1)CN(c1c(F)c(OC)cc(OC)c1F)C(=O)C21CC1 [Compound 1 Form I, N-((2′-(2,6-difluoro-3,5-dimethoxyphenyl)-3′-oxo-2′,3′-dihydro-1′H-spiro[cyclopropane-1,4′-[2,7]naphthyridine]-6′-yl)methyl)acrylamide]
[1]; 1-Propanol, 50 °C, organic solvent or mixture, thermodynamic from solid, 1-Propanol, read-out: Solubility at 50 ± 1° C.
  solubility: 2890 µg/mL (≈ 6.73 mM)
[1]; 2-methoxyethanol, 50 °C, organic solvent or mixture, thermodynamic from solid, 2-Methoxyethanol, read-out: Solubility at 50 ± 1° C.
  solubility: 36600 µg/mL (≈ 85.3 mM)
[1]; 50 °C, organic solvent or mixture, thermodynamic from solid, at 50° C. in DMSO, DMF, DCM/MeOH (1:1), THF/water (4:1), acetone/water (4:1) and chloroform, read-out: Solubility (completely soluble)
  solubility: > 50000 µg/mL
[1]; 50 °C, organic solvent or mixture, thermodynamic from solid, at 50° C. in heptane, hexane, toluene, MTBE, isobutyl acetate, IPAc, water, and acetone water (1:4), read-out: Solubility (insoluble)
  solubility: < 1000 µg/mL
[1]; Acetone/water (1:1), 50 °C, aqueous with cosolvent or surfactant or cyclodextrin, thermodynamic from solid, Acetone/water (1:1), read-out: Solubility at 50 ± 1° C.
  solubility: 12600 µg/mL (≈ 29.4 mM)
[1]; Acetone/water (1:2), 50 °C, aqueous with cosolvent or surfactant or cyclodextrin, thermodynamic from solid, Acetone/water (1:2), read-out: Solubility at 50 ± 1° C.
  solubility: 3530 µg/mL (≈ 8.22 mM)
[1]; Acetone/water (1:4), 50 °C, aqueous with cosolvent or surfactant or cyclodextrin, thermodynamic from solid, Acetone/water (1:4), read-out: Solubility at 50 ± 1° C.
  solubility: 570 µg/mL (≈ 1.33 mM)
[1]; Acetone/water (2:1), 50 °C, aqueous with cosolvent or surfactant or cyclodextrin, thermodynamic from solid, Acetone/water (2:1), read-out: Solubility at 50 ± 1° C.
  solubility: 47000 µg/mL (≈ 109 mM)
[1]; Acetone/water (4:1), 50 °C, aqueous with cosolvent or surfactant or cyclodextrin, thermodynamic from solid, Acetone/water (4:1), read-out: Solubility at 50 ± 1° C.
  solubility: > 50000 µg/mL
[1]; DCM/MeOH (1:1), 50 °C, organic solvent or mixture, thermodynamic from solid, DCM/MeOH (1:1), read-out: Solubility at 50 ± 1° C.
  solubility: > 50000 µg/mL
[1]; DMF, 50 °C, organic solvent or mixture, thermodynamic from solid, DMF, read-out: Solubility at 50 ± 1° C.
  solubility: > 50000 µg/mL
[1]; DMSO, 50 °C, organic solvent or mixture, thermodynamic from solid, DMSO, read-out: Solubility at 50 ± 1° C.
  solubility: > 50000 µg/mL
[1]; EtOAc, 50 °C, organic solvent or mixture, thermodynamic from solid, EtOAc, read-out: Solubility at 50 ± 1° C.
  solubility: 2710 µg/mL (≈ 6.31 mM)
[1]; EtOH, 50 °C, organic solvent or mixture, thermodynamic from solid, EtOH, read-out: Solubility at 50 ± 1° C.
  solubility: 8560 µg/mL (≈ 19.9 mM)
[1]; IPA, 50 °C, organic solvent or mixture, thermodynamic from solid, IPA, read-out: Solubility at 50 ± 1° C.
  solubility: 2220 µg/mL (≈ 5.17 mM)
[1]; IPAc, 50 °C, organic solvent or mixture, thermodynamic from solid, IPAc, read-out: Solubility at 50 ± 1° C.
  solubility: 980 µg/mL (≈ 2.28 mM)
[1]; MEK, 50 °C, organic solvent or mixture, thermodynamic from solid, MEK, read-out: Solubility at 50 ± 1° C.
  solubility: 3730 µg/mL (≈ 8.69 mM)
[1]; MIBK, 50 °C, organic solvent or mixture, thermodynamic from solid, MIBK, read-out: Solubility at 50 ± 1° C.
  solubility: 2950 µg/mL (≈ 6.87 mM)
[1]; MeCN, 50 °C, organic solvent or mixture, thermodynamic from solid, MeCN, read-out: Solubility at 50 ± 1° C.
  solubility: 11600 µg/mL (≈ 26.9 mM)
[1]; THF, 50 °C, organic solvent or mixture, thermodynamic from solid, THF, read-out: Solubility at 50 ± 1° C.
  solubility: 11300 µg/mL (≈ 26.3 mM)
[1]; THF/water (4:1), 50 °C, organic solvent or mixture, thermodynamic from solid, THF/water (4:1), read-out: Solubility at 50 ± 1° C.
  solubility: > 50000 µg/mL
[1]; acetone, 50 °C, organic solvent or mixture, thermodynamic from solid, Acetone, read-out: Solubility at 50 ± 1° C.
  solubility: 15500 µg/mL (≈ 36.1 mM)
[1]; ethyl formate, 50 °C, organic solvent or mixture, thermodynamic from solid, Ethyl formate, read-out: Solubility at 50 ± 1° C.
  solubility: 6580 µg/mL (≈ 15.3 mM)
[1]; hexane, 50 °C, organic solvent or mixture, thermodynamic from solid, Hexane, read-out: Solubility at 50 ± 1° C.
  solubility: 60 µg/mL (≈ 0.14 mM)
[1]; isobutyl acetate, 50 °C, organic solvent or mixture, thermodynamic from solid, Isobutyl acetate, read-out: Solubility at 50 ± 1° C.
  solubility: 750 µg/mL (≈ 1.75 mM)
[1]; methanol, 50 °C, organic solvent or mixture, thermodynamic from solid, Methanol, read-out: Solubility at 50 ± 1° C.
  solubility: 17900 µg/mL (≈ 41.6 mM)
[1]; n-BuOH, 50 °C, organic solvent or mixture, thermodynamic from solid, n-BuOH, read-out: Solubility at 50 ± 1° C.
  solubility: 6200 µg/mL (≈ 14.4 mM)
[1]; organic solvent or mixture, thermodynamic from solid, at 50° C. in MeCN, 1,4-dioxane, MeOH, 2-methoxyethanol, THF, acetone, n-BuOH, EtOH, ethyl formate, 1-propanol, MEK, acetone water (2:1), acetone water (1:1), MIBK, EtOAc, IPA, and acetone water (1:2), read-out: Solubility (slightly soluble)
  solubility: 1000 to 50000 µg/mL (≈ 2.33 to 116 mM)
[1]; water, 50 °C, water, thermodynamic from solid, Water, read-out: Solubility at 50 ± 1° C.
  solubility: 10 µg/mL (≈ 0.0233 mM)
[2]
  Relative stability of polymorphic forms: most stable polymorphic form
[3]; 1-Propanol, 23 °C, organic solvent or mixture, thermodynamic from solid, 1-Propanol, read-out: Solubility at 23 ± 1° C.
  solubility: 1720 µg/mL (≈ 4.01 mM)
[3]; 2-methoxyethanol, 23 °C, organic solvent or mixture, thermodynamic from solid, 2-Methoxyethanol, read-out: Solubility at 23 ± 1° C.
  solubility: 20200 µg/mL (≈ 47 mM)
[3]; Acetone/water (1:1), 23 °C, aqueous with cosolvent or surfactant or cyclodextrin, thermodynamic from solid, Acetone/water (1:1), read-out: Solubility at 23 ± 1° C.
  solubility: 3970 µg/mL (≈ 9.24 mM)
[3]; Acetone/water (1:2), 23 °C, aqueous with cosolvent or surfactant or cyclodextrin, thermodynamic from solid, Acetone/water (1:2), read-out: Solubility at 23 ± 1° C.
  solubility: 860 µg/mL (≈ 2 mM)
[3]; Acetone/water (1:4), 23 °C, aqueous with cosolvent or surfactant or cyclodextrin, thermodynamic from solid, Acetone/water (1:4), read-out: Solubility at 23 ± 1° C.
  solubility: 170 µg/mL (≈ 0.396 mM)
[3]; Acetone/water (2:1), 23 °C, aqueous with cosolvent or surfactant or cyclodextrin, thermodynamic from solid, Acetone/water (2:1), read-out: Solubility at 23 ± 1° C.
  solubility: 12500 µg/mL (≈ 29 mM)
[3]; Acetone/water (4:1), 23 °C, aqueous with cosolvent or surfactant or cyclodextrin, thermodynamic from solid, Acetone/water (4:1), read-out: Solubility at 23 ± 1° C.
  solubility: 19400 µg/mL (≈ 45.2 mM)
[3]; DCM/MeOH (1:1), 23 °C, organic solvent or mixture, thermodynamic from solid, DCM/MeOH (1:1), read-out: Solubility at 23 ± 1° C.
  solubility: > 50000 µg/mL
[3]; DMF, 23 °C, organic solvent or mixture, thermodynamic from solid, DMF, read-out: Solubility at 23 ± 1° C.
  solubility: > 50000 µg/mL
[3]; DMSO, 23 °C, organic solvent or mixture, thermodynamic from solid, DMSO, read-out: Solubility at 23 ± 1° C.
  solubility: > 50000 µg/mL
[3]; DMSO, DMF, DCM/MeOH (1:1), THF/water (4:1), 23 °C, organic solvent or mixture, thermodynamic from solid, at 23° C. in DMSO, DMF, DCM/MeOH (1:1), and THF/water (4:1), read-out: Solubility (completely soluble)
  solubility: > 50000 µg/mL
[3]; Dichloromethane, 23 °C, organic solvent or mixture, thermodynamic from solid, Dichloromethane, read-out: Solubility at 23 ± 1° C.
  solubility: 12400 µg/mL (≈ 29 mM)
[3]; EtOAc, 23 °C, organic solvent or mixture, thermodynamic from solid, EtOAc, read-out: Solubility at 23 ± 1° C.
  solubility: 890 µg/mL (≈ 2.07 mM)
[3]; EtOH, 23 °C, organic solvent or mixture, thermodynamic from solid, EtOH, read-out: Solubility at 23 ± 1° C.
  solubility: 2010 µg/mL (≈ 4.68 mM)
[3]; IPA, 23 °C, organic solvent or mixture, thermodynamic from solid, IPA, read-out: Solubility at 23 ± 1° C.
  solubility: 900 µg/mL (≈ 2.1 mM)
[3]; IPAc, 23 °C, organic solvent or mixture, thermodynamic from solid, IPAc, read-out: Solubility at 23 ± 1° C.
  solubility: 440 µg/mL (≈ 1.02 mM)
[3]; MEK, 23 °C, organic solvent or mixture, thermodynamic from solid, MEK, read-out: Solubility at 23 ± 1° C.
  solubility: 3580 µg/mL (≈ 8.34 mM)
[3]; MIBK, 23 °C, organic solvent or mixture, thermodynamic from solid, MIBK, read-out: Solubility at 23 ± 1° C.
  solubility: 910 µg/mL (≈ 2.12 mM)
[3]; MeCN, 23 °C, organic solvent or mixture, thermodynamic from solid, MeCN, read-out: Solubility at 23 ± 1° C.
  solubility: 4590 µg/mL (≈ 10.7 mM)
[3]; THF, 23 °C, organic solvent or mixture, thermodynamic from solid, THF, read-out: Solubility at 23 ± 1° C.
  solubility: 3770 µg/mL (≈ 8.78 mM)
[3]; THF/water (4:1), 23 °C, organic solvent or mixture, thermodynamic from solid, THF/water (4:1), read-out: Solubility at 23 ± 1° C.
  solubility: > 50000 µg/mL
[3]; acetone, 23 °C, organic solvent or mixture, thermodynamic from solid, Acetone, read-out: Solubility at 23 ± 1° C.
  solubility: 5100 µg/mL (≈ 11.9 mM)
[3]; at 23° C. in MeCN, 1,4-dioxane, MeOH, 2-methoxyethanol, THF, acetone, n-BuOH, EtOH, ethyl formate, 1-propanol, MEK, acetone water (2:1), acetone water (1:1), chloroform and dichloromethane
  Solubility (slightly soluble): 1000 to 50000 µg/mL
[3]; ethyl formate, 23 °C, organic solvent or mixture, thermodynamic from solid, Ethyl formate, read-out: Solubility at 23 ± 1° C.
  solubility: 2200 µg/mL (≈ 5.12 mM)
[3]; isobutyl acetate, 23 °C, organic solvent or mixture, thermodynamic from solid, Isobutyl acetate, read-out: Solubility at 23 ± 1° C.
  solubility: 280 µg/mL (≈ 0.652 mM)
[3]; methanol, 23 °C, organic solvent or mixture, thermodynamic from solid, Methanol, read-out: Solubility at 23 ± 1° C.
  solubility: 5350 µg/mL (≈ 12.5 mM)
[3]; n-BuOH, 23 °C, organic solvent or mixture, thermodynamic from solid, n-BuOH, read-out: Solubility at 23 ± 1° C.
  solubility: 1180 µg/mL (≈ 2.75 mM)
[3]; organic solvent or mixture, thermodynamic from solid, at 23° C. in heptane, hexane, toluene, MTBE, isobutyl acetate, IPAc, water, acetone water (1:4), MIBK, EtOAc, IPA, and acetone water (1:2), read-out: Solubility (insoluble)
  solubility: < 1000 µg/mL
[3]; water, 23 °C, water, thermodynamic from solid, Water, read-out: Solubility at 23 ± 1° C.
  solubility: 10 µg/mL (≈ 0.0233 mM)

## C=CC(=O)NCc1cc2c(cn1)CN(c1c(F)c(OC)cc(OC)c1F)C(=O)C21CC1 [Form III]
[1]; 1,4-dioxane, 50 °C, organic solvent or mixture, thermodynamic from solid, 1,4-Dioxane, read-out: Solubility at 50 ± 1° C.
  solubility: 37800 µg/mL (≈ 88 mM)
[3]; 1,4-dioxane, 23 °C, organic solvent or mixture, thermodynamic from solid, 1,4-Dioxane, read-out: Solubility at 23 ± 1° C.
  solubility: 3020 µg/mL (≈ 7.03 mM)

## C=CC(=O)NCc1cc2c(cn1)CN(c1c(F)c(OC)cc(OC)c1F)C(=O)C21CC1 [Form II]
[1]; Chloroform, 50 °C, organic solvent or mixture, thermodynamic from solid, Chloroform, read-out: Solubility at 50 ± 1° C.
  solubility: > 50000 µg/mL
[3]; Chloroform, 23 °C, organic solvent or mixture, thermodynamic from solid, Chloroform, read-out: Solubility at 23 ± 1° C.
  solubility: 26700 µg/mL (≈ 62.1 mM)

## C=CC(=O)NCc1cc2c(cn1)CN(c1c(F)c(OC)cc(OC)c1F)C(=O)C21CC1 [Form IV]
[1]; toluene, 50 °C, organic solvent or mixture, thermodynamic from solid, Toluene, read-out: Solubility at 50 ± 1° C.
  solubility: 170 µg/mL (≈ 0.396 mM)
[3]; toluene, 23 °C, organic solvent or mixture, thermodynamic from solid, Toluene, read-out: Solubility at 23 ± 1° C.
  solubility: 150 µg/mL (≈ 0.349 mM)
